Measured values taken from PMC8533299, “Synthesis, In Silico Study, and Anti-Cancer Activity of Thiosemicarbazone Derivatives” (Biomedicines, 2021).
≈ marks a conversion by molar mass, not a printed value. Where “and” joins values, the source holds several entries; their conditions need not be identical. Identical values can stand only once.

Key:
[1] = tested on: gene expression in MCF-7 human breast cancer cells; assay: RT-qPCR gene expression in MCF-7 cells; format: cell-based
Procedure: (§1) Total mRNA was isolated and extracted by Trizol reagent as described in an earlier method. RevertAid First Strand cDNA synthesis kit (Thermo Fisher Scientific, Waltham, MA, USA) was used to synthesize cDNA in a total reaction volume of 20 μL containing oligo-dT primers, RiboLock RNase inhibitor, and reverse transcriptase. Gene-specific primers were used to amplify cDNAs in RT-qPCR machine (Applied Biosystems, Waltham, MA, USA).

[2] = tested on: gene expression in B16-F0 melanoma cells; assay: RT-qPCR gene expression in B16-F0 cells; format: cell-based, Mouse
Procedure: as §1

[3] = MTT cytotoxicity test on MCF-10A cells; format: cell-based, Human; settings: human, MCF-10A breast epithelial cells
Procedure: (§2) The in vitro anticancer activities of the synthesized compounds were conducted using different cancerous and non-cancerous cell lines viz B16-F0 (Mouse melanoma), mouse Ehrlich Ascites Carcinoma (EAC), MCF-7 (Human breast cancer), MCF-10A (Human breast epithelial cells), and NIH/3T3 (Mouse fibroblast cells). All cell lines were procured from the National Centre for Cell Science, Pune, India. The procured cells were cultured in a six-well culture plate with Dulbecco’s Modified Eagle’s Medium (DMEM) supplemented with 10% fetal bovine serum in a humid CO2 incubator with 5% carbon dioxide at 37 °C.
(§3) The anti-cancer effect and cytotoxicity of both 3-MBTSc and 4-NBTSc compounds were evaluated against different cancerous (MCF-7, EAC, B16-F0 cells) and noncancerous cells (MCF-10A, NIH-3T3 cells) using MTT test. In brief, the stock solutions of both the tested compounds were prepared by dissolving 1 mg of each compound in 1 mL of DMSO separately. Then, four different concentrations (5, 10, 12, and 20 µg/mL) of both compounds were used during the test along with the negative control. Also, 10 μg/mL of doxorubicin (Dox) was used as the positive control during the experiment. Both untreated and treated cells were incubated for next 24 and 48 h. Then, all the steps during the whole experiment were carried out by our earlier reported procedure. Later, the absorbance values were measured by an ELISA reader (Biorad, Hercules, CA, USA) at 570 nm wavelength using secondary wavelength as a reference at 620 nm and the percentages of cell viability was calculated using the following formula [59, 60, 61]. Cell viability (%)= Mean absorbance of treated cells/Mean absorbance of untreated cells × 100

[4] = tested on: MCF-10A (Human breast epithelial cells); assay: MTT cytotoxicity test on MCF-10A cells; format: cell-based; settings: 48 h
Procedure: as §2, §3

[5] = tested on: MCF-7 (Human breast cancer); assay: MTT test on MCF-7 cells; format: cell-based; settings: MCF7, till 48 h
Procedure: as §2, §3
(§4) Based on the cell viability data, the IC50 values of both compounds were calculated on different cancer cells by plotting their corresponding dose-responsive graphs.
(§5) The obtained data were statistically analyzed. The descriptive analysis was done and the IC50 values were calculated by fitting the sigmoidal dose responsive graph using GraphPad Prism (GraphPad Software, Inc., La Jolla, CA, USA). […]

[6] = tested on: B16-F0 (Mouse melanoma); assay: MTT test on B16-F0 cells; format: cell-based
Procedure: as §2, §3, §4, §5

[7] = MCF-7 cells treated, GAPDH housekeeping gene
[8] = MCF-7 cells, difference of RQ values
[9] = B16-F0 cells treated, GAPDH housekeeping gene
[10] = B16-F0 cells, difference of RQ values

IC50 [5]: 2.821 ± 0.008 µg/mL (≈ 13.5 µM)
IC50 ([6]; Mus musculus, B16F0, B16-F0 cells, MTT, till 48 h): 2.904 ± 0.013 µg/mL (≈ 13.9 µM)
SMILES: COc1cccc(C=NNC(N)=S)c1 [3-MBTSc, 3-Methoxybenzaldehyde thiosemicarbazone]
BCl2 Treated (RQ value) [1, 7]: 2.375 ± 0.025
BRCA1 Treated (RQ value) [1, 7]: 7.13 ± 0.01
BRCA2 Treated (RQ value) [1, 7]: 1.235 ± 0.005
Bax Treated (RQ value) [1, 7]: 2.125 ± 0.025
Caspase-3 Treated (RQ value) [1, 7]: 2.13 ± 0.01
Dmp1 Treated (RQ value) [1, 7]: 2.1 ± 0.03
ER Treated (RQ value) [1, 7]: 3.15 ± 0.03
Hdm2 Treated (RQ value) [1, 7]: 5.26 ± 0.045
Myc Treated (RQ value) [1, 7]: 3.43 ± 0.015
PKC Treated (RQ value) [1, 7]: 5.455 ± 0.015
PR Treated (RQ value) [1, 7]: 1.23 ± 0.02
PTEN Treated (RQ value) [1, 7]: 3.78 ± 0.02
RAS Treated (RQ value) [1, 7]: 3.905 ± 0.035
p19 Arf Treated (RQ value) [1, 7]: 4.575 ± 0.055
p21 Treated (RQ value) [1, 7]: 3.125 ± 0.025
p53 Treated (RQ value) [1, 7]: 5.185 ± 0.015
pRB Treated (RQ value) [1, 7]: 3.11 ± 0.01
BCl2 Fold Change (MCF 7 treated-MCF 7 untreated) [1, 8]: 0.285 fold
BRCA1 Fold Change (MCF 7 treated-MCF 7 untreated) [1, 8]: 5.33 fold
BRCA2 Fold Change (MCF 7 treated-MCF 7 untreated) [1, 8]: -0.7 fold
Bax Fold Change (MCF 7 treated-MCF 7 untreated) [1, 8]: 1.4 fold
Caspase-3 Fold Change (MCF 7 treated-MCF 7 untreated) [1, 8]: 1.53 fold
Hdm2 Fold Change (MCF 7 treated-MCF 7 untreated) [1, 8]: -1.98 fold
Myc Fold Change (MCF 7 treated-MCF 7 untreated) [1, 8]: -4.02 fold
PKC Fold Change (MCF 7 treated-MCF 7 untreated) [1, 8]: -7.64 fold
PR Fold Change (MCF 7 treated-MCF 7 untreated) [1, 8]: 0.035 fold
PTEN Fold Change (MCF 7 treated-MCF 7 untreated) [1, 8]: 1.635 fold
RAS Fold Change (MCF 7 treated-MCF 7 untreated) [1, 8]: −5.92 fold
p19 Arf Fold Change (MCF 7 treated-MCF 7 untreated) [1, 8]: 3.24 fold
p21 Fold Change (MCF 7 treated-MCF 7 untreated) [1, 8]: 0.935 fold
p53 Fold Change (MCF 7 treated-MCF 7 untreated) [1, 8]: 3.025 fold
pRB Fold Change (MCF 7 treated-MCF 7 untreated) [1, 8]: 1.51 fold
BCl2 Treated (RQ value) [2, 9]: 2.14 ± 0.028
BRCA1 Treated (RQ value) [2, 9]: 1.14 ± 0.028
Bax Treated (RQ value) [2, 9]: 3.095 ± 0.021
Caspase-3 Treated (RQ value) [2, 9]: 6.105 ± 0.021
Dmp1 Treated (RQ value) [2, 9]: 5.19 ± 0.028
Fos Treated (RQ value) [2, 9]: 3.135 ± 0.021
MTS 1 Treated (RQ value) [2, 9]: 6.14 ± 0.042
Mdm2 Treated (RQ value) [2, 9]: 5.105 ± 0.021
PKC Treated (RQ value) [2, 9]: 5.13 ± 0.028
PTEN Treated (RQ value) [2, 9]: 4.94 ± 0.028
RAS Treated (RQ value) [2, 9]: 4.16 ± 0.028
p19 Arf Treated (RQ value) [2, 9]: 5.125 ± 0.021
p21 Treated (RQ value) [2, 9]: 5.115 ± 0.021
p53 Treated (RQ value) [2, 9]: 5.185 ± 0.035
pRB Treated (RQ value) [2, 9]: 1.105 ± 0.007
BCl2 Fold Change (B16-F0 treated-B16-F0 untreated) [2, 10]: 0.050 fold
BRCA1 Fold Change (B16-F0 treated-B16-F0 untreated) [2, 10]: -0.660 fold
Bax Fold Change (B16-F0 treated-B16-F0 untreated) [2, 10]: 0.360 fold
Caspase-3 Fold Change (B16-F0 treated-B16-F0 untreated) [2, 10]: 3.505 fold and 3.50 fold
Dmp1 Fold Change (B16-F0 treated-B16-F0 untreated) [2, 10]: 2.700 fold
MTS 1 Fold Change (B16-F0 treated-B16-F0 untreated) [2, 10]: 4.205 fold
Mdm2 Fold Change (B16-F0 treated-B16-F0 untreated) [2, 10]: -2.135 fold
PTEN Fold Change (B16-F0 treated-B16-F0 untreated) [2, 10]: 2.795 fold
p19 Arf Fold Change (B16-F0 treated-B16-F0 untreated) [2, 10]: 3.790 fold
p21 Fold Change (B16-F0 treated-B16-F0 untreated) [2, 10]: 2.925 fold
p53 Fold Change (B16-F0 treated-B16-F0 untreated) [2, 10]: 3.025 fold
pRB Fold Change (B16-F0 treated-B16-F0 untreated) [2, 10]: -0.495 fold
viability at 48 h [3]: > 80%
toxicity [4]: less than 20%
inhibition of cell growth ([6]; B16-F0 cell line, MTT assay): 50.42%
